# Assay results reported in US8080552B2, “Pyrimidyl derivatives as protein kinase inhibitors” (Hoffmann-LA Roche Inc., priority 2006, dated 2011).
# Key:
# [1] = system: HCT 116 cells; test: CellTiter-Glo assay in HCT 116 cells; type: cell-based; details: 120 h; HCT 116 human colon carcinoma cells, 5 days incubation, cell viability (ATP luminescence)
# Text: CellTiter-Glo™ Assay in HCT 116 Cells:
# The CellTiter-Glo™ Luminescent Cell Viability Assay (Promega) is a homogeneous method of determining the number of viable cells in culture based on quantitation of the ATP present, which signals the presence of metabolically active cells.
# HCT 116 cells (human colon carcinoma, ATCC-No. CCl-247) were cultivated in RPMI 1640 medium with GlutaMAX™ I (Invitrogen, Cat-No. 61870-010), 5% Fetal Calf Serum (FCS, Sigma Cat-No. F4135 (FBS)); 100 Units/ml penicillin/100 μg/ml streptomycin (=Pen/Strep from Invitrogen Cat. No. 15140). For the assay the cells were seeded in 384 well plates, 1000 cells per well, in the same medium. The next day the test compounds were added in various concentrations ranging from 30 μM to 0.0015 μM (10 concentrations, 1:3 diluted). After 5 days the CellTiter-Glo™ assay was done according to the instructions of the manufacturer (CellTiter-Glo™ Luminescent Cell Viability Assay, from Promega). In brief: the cell-plate was equilibrated to room temperature for approximately 30 minutes and than the CellTiter-Glo™ reagent was added. The contents were carefully mixed for 15 minutes to induce cell lysis. After 45 minutes the luminescent signal was measured in Victor 2, (scanning multiwell spectrophotometer, Wallac).
# • Medium: RPMI 1640 with GlutaMAX™ I (Invitrogen, Cat-Nr. 61870), 5% FCS (Sigma Cat.-No. F4135), Pen/Strep (Invitrogen, Cat No. 15140). • HCT116 (ATCC-No. CCl-247): 1000 cells in 60 μl per well of 384 well plate (Greiner 781098, μClear-plate white) • After seeding incubate plates 24 h at 37° C., 5% CO2 2nd. Day: Induction (Treatment with Compounds, 10 Concentrations):
# In order to achieve a final concentration of 30 μM as highest concentration 3.5 μl of 10 mM compound stock solution were added directly to 163 μl media. Then step e) of the dilution procedure described below, was followed.
# [2] = system: VEGF-induced HUVEC cells; test: CellTiter-Glo assay in VEGF-induced HUVEC cells; type: cell-based; details: Homo sapiens; Table 2; VEGF-induced (20 ng/ml) HUVEC cells, 72 hours, cell viability (ATP luminescence); read-out: IC50 HCT 116
# Description: CellTiter-Glo™ Assay in VEGF-Induced HUVEC Cells:
# HUVEC-c (Human Umbilical Vein Endothelial Cells, from Promocell Cat-No. C-12200) cells were trypsinized, spinned down and plated in 384-well plates at 1500 cells per well in 60 μl endothelial basal medium (EBM-2 from Promocell, Cat-No. C-22211) with 0.5% Fetal Calf Serum (FCS, Sigma Cat-No. F4135 (FBS)). Cells were incubated overnight at 37° C., and the next day, test compounds (stock solution 140 μmol/l in medium with 4.2% dimethylsulfoxide (DMSO)) were added in 5 μl medium over a final concentration range of 10 μmol/l to 0.5 nmol/l and 0.3% DMSO. Compounds were tested in triplicates. After 2 hrs 5 μl VEGF (VEGF 165, R&D Systems, Cat-No. 293-VE-010, stock solution 280 ng/ml in medium) was added to a final concentration of 20 ng/ml. Cells were incubated for 72 hours at 37° C. in medium. Cell number was quantitated using CellTiter-Glo™ Luminescent Cell Viability Assay (from Promega) according to the instructions of the supplier. This assay measures the number of viable cells per well by measurement of luminescent signal based on amount of cellular ATP. IC50 are determined using a non-linear curve fit (XLfit software (ID Business Solution Ltd., Guilford, Surrey, UK)) (see also CellTiter-Glo™ assay in HCT 116 cells above).
Compound,IC50 [1],IC50 [2]
"O=C(Nc1ccc(Oc2ccnc(NCCCO)n2)cc1)Nc1cc(C(F)(F)F)ccc1F [Example 8, 1-(2-Fluoro-5-trifluoromethyl-phenyl)-3-{4-[2-(3-Hydroxy-propylamino)-pyrimidin-4-yloxy]-phenyl}-urea]",300 to 10000 nM,5 to 750 nM
"O=C(Nc1ccc(Oc2ccnc(NCCCO)n2)c(F)c1)Nc1ccc(Cl)c(C(F)(F)F)c1 [Example 17, 1-(4-Chloro-3-trifluoromethyl-phenyl)-3-{3-fluoro-4-[2-(3-hydroxy-propylamino)-pyrimidin-4-yloxy]-phenyl}-urea]",300 to 10000 nM,5 to 750 nM
"O=C(Nc1ccc(Oc2ccnc(NCCCO)n2)cc1)Nc1ccc(OC(F)(F)F)cc1 [Example 3, 1-{4-[2-(3-Hydroxy-propylamino)-pyrimidin-4-yloxy]-phenyl}-3-(4-trifluoromethoxy-phenyl)-urea]",300 to 10000 nM,5 to 750 nM
"O=C(Nc1ccc(Oc2cc(NCCCO)ncn2)cc1)Nc1ccc(Cl)c(C(F)(F)F)c1 [Example 23, 1-(4-Chloro-3-trifluoromethyl-phenyl)-3-{4-[6-(3-hydroxy-propylamino)-pyrimidin-4-yloxy]-phenyl}-urea]",,5 to 750 nM
"O=C(Nc1ccc(Oc2ccnc(NCCCO)n2)c(Cl)c1)Nc1ccc(Cl)c(C(F)(F)F)c1 [Example 15, 1-(4-Chloro-3-trifluoromethyl-phenyl)-3-{3-chloro-4-[2-(3-hydroxy-propylamino)-pyrimidin-4-yloxy]-phenyl}-urea]",,5 to 750 nM
"CC(C)(C)c1cccc(NC(=O)Nc2ccc(Oc3ccnc(NCCCO)n3)cc2)c1 [Example 4, 1-(3-tert-Butyl-phenyl)-3-{4-[2-(3-Hydroxy-propylamino)-pyrimidin-4-yloxy]-phenyl}-urea]",300 to 10000 nM,5 to 750 nM
"COc1ccc(C(F)(F)F)cc1NC(=O)Nc1ccc(Oc2ccnc(NCCCO)n2)cc1 [Example 1, 1-{4-[2-(3-Hydroxy-propylamino)-pyrimidin-4-yloxy]-phenyl}-3-(2-methoxy-5-trifluoromethyl-phenyl)-urea]",,67 nM
"CC(O)CCNc1nccc(Oc2ccc(NC(=O)Nc3ccc(Cl)c(C(F)(F)F)c3)cc2)n1 (stereo not drawn) [Example 12, 1-(4-Chloro-3-trifluoromethylphenyl)-3-{4-[2-(3-hydroxy-butylamino)-pyrimidin-4-yloxy]-phenyl}-urea]",300 to 10000 nM,5 to 750 nM
"O=C(Nc1ccc(Cl)c(C(F)(F)F)c1)Nc1ccc(Oc2ccnc(NCCCO)n2)cc1F [Example 18, 1-(4-Chloro-3-trifluoromethyl-phenyl)-3-{2-fluoro-4-[2-(3-hydroxy-propylamino)-pyrimidin-4-yloxy]-phenyl}-urea]",300 to 10000 nM,5 to 750 nM
"O=C(Nc1ccc(Oc2ccnc(NCCO)n2)cc1)Nc1ccc(Cl)c(C(F)(F)F)c1 [Example 11, 1-(4-Chloro-3-trifluoromethylphenyl)-3-{4-[2-(2-hydroxy-ethylamino)-pyrimidin-4-yloxy]-phenyl}-urea]",300 to 10000 nM,
"CC(C#N)c1cccc(NC(=O)Nc2ccc(Oc3ccnc(NCCCO)n3)cc2)c1 (stereo not drawn) [Example 26, 1-[3-(Cyano-methyl-methyl)-phenyl]-3-{4-[2-(3-hydroxy-propylamino)-pyrimidin-4-yloxy]-phenyl}-urea]",300 to 10000 nM,5 to 750 nM
"O=C(Nc1ccc(Oc2ccnc(NCCCCO)n2)cc1)Nc1ccc(Cl)c(C(F)(F)F)c1 [Example 10, 1-(4-Chloro-3-trifluoromethylphenyl)-3-{4-[2-(4-hydroxy-butylamino)-pyrimidin-4-yloxy]-phenyl}-urea]",300 to 10000 nM,5 to 750 nM
"O=C(Nc1ccccc1)Nc1ccc(Oc2ccnc(NCCCO)n2)cc1 [Example 13, 1-{4-[2-(3-Hydroxy-propylamino)-pyrimidin-4-yloxy]-phenyl}-3-phenyl-urea]",300 to 10000 nM,5 to 750 nM
"O=C(Nc1ccc(Oc2cc(NCCO)ncn2)cc1)Nc1ccc(Cl)c(C(F)(F)F)c1 [Example 22, 1-(4-Chloro-3-trifluoromethyl-phenyl)-3-{4-[6-(2-hydroxy-ethylamino)-pyrimidin-4-yloxy]-phenyl}-urea]",300 to 10000 nM,5 to 750 nM
"CC(C)(C#N)c1cccc(NC(=O)Nc2ccc(Oc3ccnc(NCCCO)n3)cc2)c1 [Example 25, 1-[3-(Cyano-dimethyl-methyl)-phenyl]-3-{4-[2-(3-hydroxy-propylamino)-pyrimidin-4-yloxy]-phenyl}-urea]",300 to 10000 nM,5 to 750 nM
"O=C(Nc1ccc(Oc2cc(NCCO)ncn2)cc1)Nc1cccc(C(F)(F)F)c1 [Example 20, 1-{4-[6-(2-Hydroxy-ethylamino)-pyrimidin-4-yloxy]-phenyl}-3-(3-trifluoromethyl-phenyl)-urea]",300 to 10000 nM,5 to 750 nM
"O=C(Nc1ccc(Oc2ccnc(NCCCO)n2)cc1)Nc1cccc(OC(F)(F)F)c1 [Example 2, 1-{4-[2-(3-Hydroxy-propylamino)-pyrimidin-4-yloxy]-phenyl}-3-(3-trifluoromethoxy-phenyl)-urea]",670 nM,5 to 750 nM
"CC(C)(C#N)c1ccc(NC(=O)Nc2ccc(Oc3ccnc(NCCCO)n3)cc2)cc1 [Example 24, 1-[4-(Cyano-dimethyl-methyl)-phenyl]-3-{4-[2-(3-Hydroxy-propylamino)-pyrimidin-4-yloxy]-phenyl}-urea]",300 to 10000 nM,
"C[Si](C)(C)c1ccc(NC(=O)Nc2ccc(Oc3ccnc(NCCCO)n3)cc2)cc1 [Example 14, 1-{4-[2-(3-Hydroxy-propylamino)-pyrimidin-4-yloxy]-phenyl}-3-(4-trimethylsilanyl-phenyl)-urea]",1520 nM,5 to 750 nM
"O=C(Nc1ccc(Oc2cc(NCCCO)ncn2)cc1)Nc1cccc(C(F)(F)F)c1 [Example 21, 1-{4-[6-(3-Hydroxy-propylamino)-pyrimidin-4-yloxy]-phenyl}-3-(3-trifluoromethyl-phenyl)-urea]",300 to 10000 nM,5 to 750 nM
"O=C(Nc1ccc(Oc2ccnc(NCCCO)n2)cc1)Nc1ccc2c(c1)OC(F)(F)O2 [Example 28, 1-(2,2-Difluoro-benzo[1,3]dioxol-5-yl)-3-{4-[2-(3-hydroxy-propylamino)-pyrimidin-4-yloxy]-phenyl}-urea]",300 to 10000 nM,82 nM
"O=C(Nc1ccc(Oc2ccnc(NCCCO)n2)cc1)Nc1cc(C(F)(F)F)ccc1Cl [Example 19, 1-(2-Chloro-5-trifluoromethyl-phenyl)-3-{4-[2-(3-hydroxy-propylamino)-pyrimidin-4-yloxy]-phenyl}-urea]",,5 to 750 nM
"O=C(Nc1ccc(Oc2ccnc(NCCCO)n2)cc1)Nc1ccc(Cl)c(C(F)(F)F)c1 [Example 9, 1-(4-Chloro-3-trifluoromethylphenyl)-3-{4-[2-(3-Hydroxy-propylamino)-pyrimidin-4-yloxy]-phenyl}-urea]",3990 nM,5 to 750 nM
"CC(C)(C)c1ccc(NC(=O)Nc2ccc(Oc3ccnc(NCCCO)n3)cc2)cc1 [Example 5, 1-(4-tert-Butyl-phenyl)-3-{4-[2-(3-Hydroxy-propylamino)-pyrimidin-4-yloxy]-phenyl}-urea]",,5 to 750 nM
"O=C(Nc1ccc(Oc2ccnc(NCCCO)n2)cc1)Nc1cccc(C(F)(F)F)c1 [Example 7, 1-{4-[2-(3-Hydroxy-propylamino)-pyrimidin-4-yloxy]-phenyl}-3-(3-trifluoromethyl-phenyl)-urea]",300 to 10000 nM,5 to 750 nM
"O=C(Nc1ccc(Cl)cc1)Nc1ccc(Oc2ccnc(NCCCO)n2)cc1 [Example 6, 1-(4-Chloro-phenyl)-3-{4-[2-(3-hydroxy-propylamino)-pyrimidin-4-yloxy]-phenyl}-urea]",300 to 10000 nM,257 nM
